Measured values: US11530244B2, “Cyclic polypeptides for PCSK9 inhibition” (priority 2018, dated 2022)
Starred links: 1 amine or outer side, 2 acyl side, 3 side chain; linkers in the order of their positions; H or OH if unused. Positions of bridges follow the written chain, without caps; N, C: chain ends. Non-standard residues stand in square brackets, D forms with d. Residues, ends and D or L forms follow the SMILES beside them. Triazole bridges read from a SMILES are 1,4-linked. X38 = NC(=O)[C@H](CSCc1cccc(C[*:1])c1)NC(=O)[C@@H]1CCCC1C(=O)[C@H](Cc1ccc(OCC2CCCCC2)cc1)N[*:2]; X18 = O=C([C@@H](Cc1cccc(OCC=[*:3])c1)N[*:1])[*:2]; NMeTrp(1-Me) = CN[C@@H](Cc1cn(C)c2ccccc12)C(=O)O; Phe(4-COOH) = N[C@@H](Cc1ccc(C(=O)O)cc1)C(=O)O; Trp(5-F) = N[C@@H](Cc1c[nH]c2ccc(F)cc12)C(=O)O; Trp(6-F) = N[C@@H](Cc1c[nH]c2cc(F)ccc12)C(=O)O; Asp(3,3-Me2) = CC(C)(C(=O)O)[C@H](N)C(=O)O; X13 = O=C(CCCCc1cccc(CCCCN[*:1])c1)[*:2]; Dip = N[C@H](C(=O)O)C(c1ccccc1)c1ccccc1; X4 = O=C(CCSCc1cccc(CSCCN[*:1])c1)[*:2]; Orn(N3) = [N-]=[N+]=NCCC[C@H](N)C(=O)O; 2Nal = N[C@@H](Cc1ccc2ccccc2c1)C(=O)O; X23 = CC[C@@]1(C(=O)[*:2])CCCN1[*:1]; dGly(cPent) = N[C@@H](C(=O)O)C1CCCC1; mXylylene = c1cc(C[*:1])cc(C[*:2])c1; X34 = O=C(CCC1CCN([*:1])CC1)[*:2]; AllylGly = C=CC[C@H](N)C(=O)O; dNMeL = CN[C@H](CC(C)C)C(=O)O; αMeP = C[C@@]1(C(=O)O)CCCN1; dPra = C#CC[C@@H](N)C(=O)O; Orn = NCCC[C@H](N)C(=O)O; dDap = NC[C@@H](N)C(=O)O; Dab = NCC[C@H](N)C(=O)O; Nva = CCC[C@H](N)C(=O)O; X2 = O=C(C[*:2])[*:1]; Ava = NCCCCC(=O)O; Mpa = O=C(O)CCS

How the values were obtained:
[1] = biological target: PCSK9 (Homo sapiens (Human), UniProt Q8NBP7); assay: PCSK9 Alexa FRET Standard assay (displacement of AlexaFluor647 tagged cyclic peptide Reagent A); assay type: binding; details: PCSK9 Alexa FRET Standard assay, 0.5 nM PCSK9, 20 nM AF cyclic peptide Reagent A; read-out: IC50
How it was run: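 TR-FRET displacement: 0.5 nM biotinylated PCSK9 with 1.25 nM Strep-Eu and 20 nM AlexaFluor-tagged cyclic peptide (final) in 50 mM HEPES pH 7.4, 0.15 M NaCl, 5 mM CaCl2, 0.01% BSA, 0.01% P20, ≥2 h at room temperature. IC50 from sigmoidal fit, converted to Ki via peptide KD; falling Eu counts flagged false positives.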

[2] = biological target: human PCSK9 / human LDLR EGFa domain interaction (Homo sapiens (Human), UniProt Q8NBP7); assay: TR-FRET assay of inhibition of the PCSK9-LDLR protein-protein interaction; assay type: binding; details: TR-FRET, 20 nM human PCSK9, 20 nM human LDLR EGFa domain, 2 hours room temperature; read-out: IC50
How it was run: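 Half-maximal inhibition was derived by 4-parameter fitting of dose-response TR-FRET data. Each well held 20 nM His-LDLR EGFa, 20 nM avitag-biotinylated PCSK9, Eu-anti-6×His and Ulight-streptavidin (5 nM each) in 50 mM HEPES, 150 mM NaCl, 5 mM CaCl2, 0.01% BSA, 0.01% Surfactant P20, incubated 2 h at room temperature.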

Chain of PCSK9 (Q8NBP7 153-692): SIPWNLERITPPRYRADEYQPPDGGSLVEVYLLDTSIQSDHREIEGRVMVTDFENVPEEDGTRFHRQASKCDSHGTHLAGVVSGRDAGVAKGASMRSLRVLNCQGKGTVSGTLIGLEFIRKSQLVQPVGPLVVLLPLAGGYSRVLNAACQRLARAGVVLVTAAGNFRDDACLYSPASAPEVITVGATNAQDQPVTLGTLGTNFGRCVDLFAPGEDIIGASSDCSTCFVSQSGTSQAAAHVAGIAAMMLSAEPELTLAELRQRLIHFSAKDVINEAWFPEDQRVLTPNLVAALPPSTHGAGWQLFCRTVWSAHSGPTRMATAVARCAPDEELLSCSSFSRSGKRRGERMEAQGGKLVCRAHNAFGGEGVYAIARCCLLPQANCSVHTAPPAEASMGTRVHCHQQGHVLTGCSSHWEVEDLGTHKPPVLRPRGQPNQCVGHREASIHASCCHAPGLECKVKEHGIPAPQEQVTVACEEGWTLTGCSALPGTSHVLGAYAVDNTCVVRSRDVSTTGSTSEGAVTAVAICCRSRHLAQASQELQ
Chain of human PCSK9 / human LDLR EGFa domain interaction (Q8NBP7 153-692): as above
Chain of human PCSK9 / human LDLR EGFa domain interaction (Q8NBP7 31-152 partner): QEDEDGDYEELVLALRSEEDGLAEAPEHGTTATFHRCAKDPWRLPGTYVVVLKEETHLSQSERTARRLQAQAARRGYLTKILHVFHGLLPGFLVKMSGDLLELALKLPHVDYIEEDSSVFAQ

IC50 [1]	IC50 [2]	SMILES
21 to 50 µM	21 to 50 µM	COc1ccc(C[C@@H]2NC(=O)[C@H](Cc3c[nH]cn3)NC(=O)[C@H](CC(=O)O)NC(=O)[C@H](Cc3c[nH]c4ccc(F)cc34)NC(=O)[C@H](Cc3c[nH]c4ccc(F)cc34)NC(=O)[C@@H](C3CCCC3)NC(=O)[C@H](CCCCN)NC(=O)CCSCc3cccc(c3)CSCCNC(=O)[C@]3(C)CCCN3C2=O)cc1 [Compound 344] (cyclo(DHY(Me)[αMeP][X4]K[dGly(cPent)][Trp(5-F)][Trp(5-F)]))
1 to 12.1 µM	1 to 12.1 µM	CC[C@@]12CCCN1C(=O)[C@H](Cc1ccc(O)cc1)NC(=O)[C@H]([C@@H](C)O)NC(=O)[C@@H]1CCCN1C(=O)[C@H](Cc1c[nH]c3ccc(F)cc13)NC(=O)[C@H](Cc1c[nH]c3ccc(F)cc13)NC(=O)CNC(=O)[C@H](CCCCN)NC(=O)CCSCc1cccc(c1)CSC[C@@H](C(N)=O)NC2=O [Compound 045] ([Mpa]KG[Trp(5-F)][Trp(5-F)]PTY[X23]C-NH2; linker 1-10 via mXylylene)
1 to 12.1 µM	1 to 12.1 µM	CC(=O)N[C@@H]1Cc2cn(nn2)CCC[C@@H](C(N)=O)NC(=O)[C@]2(C)CCCN2C(=O)[C@H](Cc2ccc(O)cc2)NC(=O)[C@H](Cc2cnc[nH]2)NC(=O)[C@H](CC(=O)O)NC(=O)[C@H](Cc2c[nH]c3ccc(F)cc23)NC(=O)[C@H](Cc2c[nH]c3ccc(F)cc23)NC(=O)CNC1=O [Compound 335] (Ac-[dPra]G[Trp(5-F)][Trp(5-F)]DHY[αMeP][Orn(N3)]-NH2; triazole 1-9)
1 to 12.1 µM	0.1 to 1 µM	COc1ccc(C[C@@H]2NC(=O)[C@H](Cc3cnc[nH]3)NC(=O)[C@H](CC(=O)O)NC(=O)[C@H](Cc3c[nH]c4ccc(F)cc34)NC(=O)[C@H](Cc3c[nH]c4ccc(F)cc34)NC(=O)[C@H](C)NC(=O)CCC3CCN(CC3)C(=O)[C@H](CC(N)=O)NC(=O)[C@]3(C)CCCN3C2=O)cc1 [Compound 404] (cyclo(A[Trp(5-F)][Trp(5-F)]DHY(Me)[αMeP]N[X34]))
1 to 12.1 µM	1 to 12.1 µM	NCCCC[C@@H]1NC(=O)CCSCc2cccc(c2)CSC[C@@H](C(N)=O)NC(=O)[C@@H]2CCCN2C(=O)[C@H](Cc2ccc(O)cc2)NC(=O)[C@H](Cc2c[nH]cn2)NC(=O)[C@H](CC(=O)O)NC(=O)[C@H](Cc2c[nH]c3ccc(F)cc23)NC(=O)[C@H](Cc2c[nH]c3ccc(F)cc23)NC(=O)CNC1=O [Compound 149] ([Mpa]KG[Trp(5-F)][Trp(5-F)]DHYPC-NH2; linker 1-10 via mXylylene)
0.1 to 1 µM	0.0001 to 0.1 µM	COc1ccc(C[C@@H]2NC(=O)[C@H](Cc3cnc[nH]3)NC(=O)[C@H](CC(=O)O)NC(=O)[C@H](Cc3c[nH]c4ccc(F)cc34)NC(=O)[C@H](Cc3c[nH]c4ccc(F)cc34)NC(=O)[C@@H](C)NC(=O)[C@H](CCCCN)NC(=O)[C@@H](NC(C)=O)CCNC(=O)COc3ccc(cc3)C[C@@H](C(N)=O)NC(=O)[C@]3(C)CCCN3C2=O)cc1 [Compound 409] (Ac-[Dab]K[dA][Trp(5-F)][Trp(5-F)]DHY(Me)[αMeP]Y-NH2; linker 1-10 via X2)
1 to 12.1 µM	0.1 to 1 µM	CC(=O)N[C@H]1CCCCNC(=O)c2ccc(cc2)C[C@@H](C(N)=O)NC(=O)[C@]2(C)CCCN2C(=O)[C@H](Cc2ccc(O)cc2)NC(=O)[C@H](Cc2cnc[nH]2)NC(=O)[C@H](CC(=O)O)NC(=O)[C@H](Cc2c[nH]c3cc(F)ccc23)NC(=O)[C@H](Cc2c[nH]c3ccc(F)cc23)NC(=O)CNC(=O)[C@H](C)NC1=O [Compound 312] (Ac-KAG[Trp(5-F)][Trp(6-F)]DHY[αMeP][Phe(4-COOH)]-NH2; lactam 1-10)
1 to 12.1 µM	1 to 12.1 µM	C[C@@H]1NC(=O)CCSCc2cccc(c2)CSCCNC(=O)[C@]2(C)CCCN2C(=O)[C@H](Cc2ccc(O)cc2)NC(=O)[C@H](C)NC(=O)[C@@H]2C/C=C\COc3cccc(c3)C[C@@H](NC(=O)[C@@H](C)NC1=O)C(=O)N[C@@H](Cc1c[nH]c3ccc(F)cc13)C(=O)N2 [Compound 498] (cyclo(AY[αMeP][X4]A[dA][X18][Trp(5-F)][AllylGly]); staple (Z) 7-9)
0.1 to 1 µM	0.0001 to 0.1 µM	C[C@H]1NC(=O)[C@H](CCCCN)NC(=O)CCSCc2cccc(c2)CSC[C@@H](C(N)=O)NC(=O)[C@]2(C)CCCN2C(=O)[C@H](Cc2ccc(O)cc2)NC(=O)[C@H](Cc2cnc[nH]2)NC(=O)[C@H](C(C)(C)C(=O)O)NC(=O)[C@H](Cc2c[nH]c3ccc(F)cc23)NC(=O)[C@H](Cc2c[nH]c3ccc(F)cc23)NC1=O [Compound 361] ([Mpa]K[dA][Trp(5-F)][Trp(5-F)][Asp(3,3-Me2)]HY[αMeP]C-NH2; linker 1-10 via mXylylene)
0.00011 to 0.1 µM	0.0001 to 0.1 µM	CCC[C@@H]1NC(=O)CCSCc2cccc(c2)CSC[C@@H](C(N)=O)NC(=O)[C@@H]2CCCN2C(=O)[C@H](Cc2ccc(OC)cc2)NC(=O)[C@H]([C@@H](C)OC)NC(=O)[C@@H]2CCCN2C(=O)[C@H](Cc2cn(C)c3ccccc23)N(C)C(=O)[C@H](Cc2ccc3ccccc3c2)NC(=O)[C@@H](CC(C)C)N(C)C1=O [Compound 038] ([Mpa][Nva][dNMeL][2Nal][NMeTrp(1-Me)]PT(Me)Y(Me)PC-NH2; linker 1-10 via mXylylene)
0.1 to 1 µM	0.0001 to 0.1 µM	NCCC[C@@H]1NC(=O)CCSCc2cccc(c2)CSC[C@@H](C(N)=O)NC(=O)[C@@H]2CCCC2C(=O)[C@H](Cc2ccc(OCC3CCCCC3)cc2)NC(=O)[C@H](Cc2cnc[nH]2)NC(=O)[C@H](CC(=O)O)NC(=O)[C@H](Cc2c[nH]c3ccc(F)cc23)NC(=O)[C@H](Cc2c[nH]c3ccc(F)cc23)NC(=O)CNC1=O (stereo partly drawn) [Compound 340] ([Mpa][Orn]G[Trp(5-F)][Trp(5-F)]DH; linker 1-C via X38)
21 to 50 µM	21 to 50 µM	C[C@@]12CCCN1C(=O)[C@H](Cc1ccc(O)cc1)NC(=O)[C@H](Cc1cnc[nH]1)NC(=O)[C@H](CC(=O)O)NC(=O)[C@H](Cc1c[nH]c3ccc(F)cc13)NC(=O)[C@H](Cc1c[nH]c3ccc(F)cc13)NC(=O)CNC(=O)[C@@H](CN)NC(=O)CCSCc1cccc(c1)CSC[C@@H](C(N)=O)NC2=O [Compound 354] ([Mpa][dDap]G[Trp(5-F)][Trp(5-F)]DHY[αMeP]C-NH2; linker 1-10 via mXylylene)

SMILES	IC50 [1]	IC50 [2]
COc1ccc(C[C@@H]2NC(=O)[C@H]([C@@H](C)O)NC(=O)[C@@H]3CCCN3C(=O)[C@H](Cc3c[nH]c4ccc(F)cc34)NC(=O)[C@H](Cc3c[nH]c4ccc(F)cc34)NC(=O)[C@@H](C)NC(=O)[C@H](C)NC(=O)CCCCc3cccc(c3)CCCCNC(=O)[C@@H]3CCCN3C2=O)cc1 [Compound 047] (cyclo(A[dA][Trp(5-F)][Trp(5-F)]PTY(Me)P[X13]))	0.1 to 1 µM	0.1 to 1 µM
COc1ccc(C[C@@H]2NC(=O)[C@H](Cc3cnc[nH]3)NC(=O)[C@H](CC(=O)O)NC(=O)[C@H](Cc3c[nH]c4ccc(F)cc34)NC(=O)[C@H](Cc3c[nH]c4ccc(F)cc34)NC(=O)[C@@H](C)NC(=O)CCCCNC(=O)c3ccc(cc3)C[C@@H](C(N)=O)NC(=O)[C@]3(C)CCCN3C2=O)cc1 [Compound 380] ([Ava][dA][Trp(5-F)][Trp(5-F)]DHY(Me)[αMeP][Phe(4-COOH)]-NH2; lactam N-9)	21 to 50 µM	21 to 50 µM
C[C@H]1NC(=O)[C@H](CCCCN)NC(=O)CCSCc2cccc(c2)CSCCNC(=O)[C@]2(C)CCCN2C(=O)[C@H](C(c2ccccc2)c2ccccc2)NC(=O)[C@H](Cc2cnc[nH]2)NC(=O)[C@H](CC(=O)O)NC(=O)[C@H](Cc2c[nH]c3ccc(F)cc23)NC(=O)[C@H](Cc2c[nH]c3ccc(F)cc23)NC1=O [Compound 406] (cyclo(DH[Dip][αMeP][X4]K[dA][Trp(5-F)][Trp(5-F)]))	0.1 to 1 µM	0.0001 to 0.1 µM
